Tests used:
[1] = test system: Human immunodeficiency virus 1; test: Antiviral activity against HIV1 NL4-3 infected in human MT4 cells assessed as reduction in p24 Gag protein production after 7 days by automated chemiluminescent enzyme immunoassay; format: functional, organism-based; conditions: Human immunodeficiency virus 1, NL4-3, MT4, 168 h
[2] = test system: Human immunodeficiency virus 1; test: Antiviral activity against darunavir-resistant HIV1 at passage 51 infected in human MT4 cells assessed as reduction in p24 Gag protein production after 7 days by automated chemiluminescent enzyme immunoassay; format: functional, organism-based; conditions: Human immunodeficiency virus 1, MT4, 168 h
[3] = test system: Human immunodeficiency virus 1; test: Antiviral activity against amprenavir-resistant HIV1 infected in human MT4 cells assessed as reduction in p24 Gag protein production after 7 days by automated chemiluminescent enzyme immunoassay; format: functional, organism-based; conditions: Human immunodeficiency virus 1, MT4, 168 h
[4] = test system: Human immunodeficiency virus 1; test: Antiviral activity against darunavir-resistant HIV1 at passage 21 infected in human MT4 cells assessed as reduction in p24 Gag protein production after 7 days by automated chemiluminescent enzyme immunoassay; format: functional, organism-based; conditions: Human immunodeficiency virus 1, MT4, 168 h
[5] = test system: Human immunodeficiency virus 1; test: Antiviral activity against Atazanavir-resistant HIV1 infected in human MT4 cells assessed as reduction in p24 Gag protein production after 7 days by automated chemiluminescent enzyme immunoassay; format: functional, organism-based; conditions: Human immunodeficiency virus 1, MT4, 168 h
[6] = test system: Human immunodeficiency virus 1; test: Antiviral activity against lopinavir-resistant HIV1 infected in human MT4 cells assessed as reduction in p24 Gag protein production after 7 days by automated chemiluminescent enzyme immunoassay; format: functional, organism-based; conditions: Human immunodeficiency virus 1, MT4, 168 h
[7] = test system: Human immunodeficiency virus 1; test: Antiviral activity against darunavir-resistant HIV1 at passage 30 infected in human MT4 cells assessed as reduction in p24 Gag protein production after 7 days by automated chemiluminescent enzyme immunoassay; format: functional, organism-based; conditions: Human immunodeficiency virus 1, MT4, 168 h
MT4 = test: Cytotoxicity against human MT4 cells after 7 days by MTT assay; format: cell-based; conditions: mt4, 168 h
Protease = Protease (Human immunodeficiency virus 1, UniProt Q9YQ12); test: Inhibition of HIV1 wild type NL4-3 protease expressed in Escherichia coli Rosetta (DE3) pLysS using Abz-Thr-Ile-Nle-Phe-(pNO2)-Gln-Arg-NH2 as substrate preincubated for 5 to 10 mins followed by substrate addition measured after 1 hr by fluorescence assay
Protease, sequence (Q9YQ12 whole entry): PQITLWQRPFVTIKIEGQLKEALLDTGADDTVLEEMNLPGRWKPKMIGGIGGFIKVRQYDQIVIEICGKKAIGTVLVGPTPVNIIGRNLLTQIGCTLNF

[8] = Selectivity ratio of CC50 for human MT4 cells to IC50 for HIV1 NL4-3 infected in human MT4 cells; format: toxicity, cell-based; conditions: MT4 cells infected with HIV1 NL4-3, read-out: Ratio CC50/IC50

Row | Compound | IC50 [1] [nM] | IC50 [2] [nM] | IC50 [3] [nM] | IC50 [4] [nM] | IC50 [5] [nM] | IC50 [6] [nM] | IC50 [7] [nM] | CC50 (MT4) [µM] | Ki (Protease) [nM] | selectivity ratio [8]
1 | CC(C)(C)NC(=O)[C@@H]1C[C@@H]2CCCC[C@@H]2CN1C[C@@H](O)[C@H](Cc1ccccc1)NC(=O)[C@H](CC(N)=O)NC(=O)c1ccc2ccccc2n1 | 21 |  |  |  |  |  |  |  |  | 
2 | CC(C)CN(C[C@@H](O)[C@H](Cc1ccccc1)NC(=O)O[C@H]1CCOC1)S(=O)(=O)c1ccc(N)cc1 | 431 | > 1000 | > 1000 | > 1000 | > 1000 | > 1000 | > 1000 |  |  | 
3 | CC(C)CN(C[C@@H](O)[C@H](Cc1ccccc1)NC(=O)O[C@H]1CO[C@H]2OCC[C@H]21)S(=O)(=O)c1ccc(N)cc1 | 3.2 to 3.5 | > 1000 |  |  |  |  |  |  |  | 
4 | COc1ccc(S(=O)(=O)N(CC(C)C)C[C@@H](O)[C@H](Cc2ccccc2)NC(=O)O[C@H]2C[C@H]3OC(=O)N(CC(C)C)[C@H]3C2)cc1 |  | > 1000 | 309 | > 1000 | 33 | 615 | > 1000 | > 100 | 0.16 | > 2440
5 | COc1ccc(S(=O)(=O)N(CC(C)C)C[C@@H](O)[C@H](Cc2ccccc2)NC(=O)O[C@H]2C[C@H]3OC(=O)N(C)[C@H]3C2)cc1 | 36 |  |  |  |  |  |  |  | 0.03 | > 2780
6 | COc1ccc(S(=O)(=O)N(CC(C)C)C[C@@H](O)[C@H](Cc2ccccc2)NC(=O)O[C@H]2C[C@H]3OC(=O)N(c4ccccc4OC)[C@H]3C2)cc1 | 251 |  |  |  |  |  |  |  | 0.08 | 
7 | COc1ccc(S(=O)(=O)N(CC(C)C)C[C@@H](O)[C@H](Cc2ccccc2)NC(=O)O[C@@H]2C[C@@H]3OC(=O)N(C)[C@@H]3C2)cc1 | 436 |  |  |  |  |  |  | > 100 | 0.16 | > 229
8 | CC(C)CN(C[C@@H](O)[C@H](Cc1ccccc1)NC(=O)O[C@H]1C[C@H]2OC(=O)N(C)[C@H]2C1)S(=O)(=O)c1ccc2nc(NC3CC3)sc2c1 | 28 |  |  |  |  |  |  | 43 | 0.19 | 1540
9 | COc1ccc(N2C(=O)O[C@@H]3C[C@H](OC(=O)N[C@@H](Cc4ccccc4)[C@H](O)CN(CC(C)C)S(=O)(=O)c4ccc(OC)cc4)C[C@@H]32)cc1 | > 1000 |  |  |  |  |  |  |  | 0.63 | 
10 | CCCN1C(=O)O[C@@H]2C[C@H](OC(=O)N[C@@H](Cc3ccccc3)[C@H](O)CN(CC(C)C)S(=O)(=O)c3ccc(OC)cc3)C[C@@H]21 | 447 |  |  |  |  |  |  |  | 0.14 | 
11 | COc1ccc(S(=O)(=O)N(CC(C)C)C[C@@H](O)[C@H](Cc2ccccc2)NC(=O)O[C@H]2C[C@H]3OC(=O)N(c4cccc(OC)c4)[C@H]3C2)cc1 | > 1000 |  |  |  |  |  |  |  | 92.8 | 
12 | COc1ccc(S(=O)(=O)N(CC(C)C)C[C@@H](O)[C@H](Cc2ccccc2)NC(=O)O[C@H]2C[C@H]3OC(=O)N(c4ccccc4)[C@H]3C2)cc1 | > 1000 |  |  |  |  |  |  |  | 0.33 | 
13 | C=CCN1C(=O)O[C@@H]2C[C@H](OC(=O)N[C@@H](Cc3ccccc3)[C@H](O)CN(CC(C)C)S(=O)(=O)c3ccc(OC)cc3)C[C@@H]21 | 369 |  |  |  |  |  |  |  | 0.016 | 
14 | COCN1C(=O)O[C@@H]2C[C@H](OC(=O)N[C@@H](Cc3ccccc3)[C@H](O)CN(CC(C)C)S(=O)(=O)c3ccc(OC)cc3)C[C@@H]21 | 84 |  |  |  |  |  |  |  | 0.016 | 
15 | COc1ccc(S(=O)(=O)N(CC(C)C)C[C@@H](O)[C@H](Cc2ccccc2)NC(=O)O[C@@H]2C[C@@H]3OC(=O)N[C@@H]3C2)cc1 | > 1000 |  |  |  |  |  |  |  | 1.33 | 
16 | C=C(C)CN1C(=O)O[C@@H]2C[C@H](OC(=O)N[C@@H](Cc3ccccc3)[C@H](O)CN(CC(C)C)S(=O)(=O)c3ccc(OC)cc3)C[C@@H]21 | 23 to 31 | > 1000 | 261 | > 1000 | 36 | > 1000 | > 1000 | > 100 | 0.04 | > 3230
17 | COc1ccc(S(=O)(=O)N(CC(C)C)C[C@@H](O)[C@H](Cc2ccccc2)NC(=O)O[C@@H]2C[C@@H]3NC(=O)O[C@@H]3C2)cc1 | 48.3 |  |  |  |  |  |  | > 100 | 0.0012 | > 2070
18 | COC(=O)N[C@H](C(=O)N[C@@H](Cc1ccccc1)[C@@H](O)CN(Cc1ccc(-c2ccccn2)cc1)NC(=O)[C@@H](NC(=O)OC)C(C)(C)C)C(C)(C)C [ATAZANAVIR] | 0.89 | > 1000 | 2 | > 1000 | > 1000 | 293 | > 1000 |  |  | 
19 | Cc1cccc(C)c1OCC(=O)N[C@@H](Cc1ccccc1)[C@@H](O)C[C@H](Cc1ccccc1)NC(=O)[C@H](C(C)C)N1CCCNC1=O [LOPINAVIR] | 6 | > 1000 | 218 | > 1000 | 311 | > 1000 | > 1000 |  |  | 

From ChEMBL document CHEMBL4270667, “Design and Synthesis of Potent HIV-1 Protease Inhibitors Containing Bicyclic Oxazolidinone Scaffold as the P2 Ligands: Structure-Activity Studies and Biological and X-ray Structural Studies” (J Med Chem, 2018)
